For test [1], the system named is COX-2, IL-6, IL-8, ICAM-1, VCAM-1, PTX3, MCP-1 mRNA expression in HUVEC. The test can be described thus: Real time RT-PCR of TNFα-induced mRNA expression in HUVEC. Type of test: cell-based, human. Conditions: for ICAM-1 mRNA expression induced by TNFα / PTX3 mRNA expression induced by TNFα: 1 ng/ml TNFα 6 h. The procedure: FIGS. 1 and 2A show the effects of Compound 3 on mRNA expression of genes of interest encoding inflammatory or oxidative markers. mRNA expression is evaluated by quantitative RT-PCR in HUVEC after 6 h of TNFα stimulation. Data are means±S.D. (n=3). Statistical analysis: one way ANOVA followed by Bonferroni, Versus CTL NS p>0.05, * p<0.05, ** p<0.01, *** p<0.001; Versus TNFα $ p<0.05, $$ p<0.01, $$$ p<0.001.
HUVEC are seeded at 67,500 cells/flask in gelatin-coated T25 in EGM. After 4 days, cell medium is replaced by EBM containing or not containing Compound 3 at different concentrations. After 1 h of preincubation, 1 ng/ml TNFα is added or is not into the T25 flasks. 6 h after, cell medium is discarded and cells are washed twice with PBS. Total RNA extraction is performed by using QIAGEN RNeasy mini Kit according to the protocol provided by the manufacturer (QIAGEN). RNA concentration for each sample is determined by Nanodrop Spectrophotometer ND-100 (ISOGEN, Life Science). Reverse transcription was performed using Transcriptor First Strand cDNA Synthesis Kit Roche (Roche Applied Science). Transcript levels are determined by quantitative reverse transcription polymerase chain reaction (qRT-PCR). cDNA obtained by reverse transcription of total RNA are diluted 100 times and 5 μl are mixed with 12.5 μl of Fast start Universal SYBRGreen Master (Roche), 2.5 μl MilliQ water, 2.5 μl of diluted primer forward and 2.5 μl of diluted primer reverse to have an optimal and final concentration of 300 nM or 900 nM. PCRs are carried out in a real-time PCR cycler (Applied Biosystems 7900HT Fast Real-time PCR System): a hot start at 95° C. for 5 min is followed by 40 cycles at 95° C. for 15 s and 65° C. for 1 min. Samples are compared using the relative cycle threshold (Ct) method. To normalize the load of cDNA for each sample, RPL13 is used as the endogenous standard. Primer sequences are listed below.
List of primers used in real time RT-PCR.

Test [2] relates to VCAM-1 and ICAM-1 protein expression in HUVEC. The test can be described thus: Western blot of VCAM-1 and ICAM-1 protein expression induced by TNFα in HUVEC. Format: cell-based, human. Conditions: TNFα 6 h, western blot normalised by β-actin. The procedure: FIGS. 2B and 2C show the effect of Compound 3 on VCAM-1 and ICAM-1 protein expression induced by TNFα in HUVEC after 6 h of incubation. B) Total protein extracts are recovered and analysed by western blot. β-actin serves as the loading control. C) Quantification of optical density of each band. Results are expressed as the ratio between the optical density of VCAM-1 or ICAM-1 and the optical density of β-actin.
HUVEC are seeded at 187,500 cells/flask in gelatin-coated T75 in EGM. After 4 days, cell medium is replaced by EBM containing or not containing Compound 3 at different concentrations. After 1 h of preincubation, 1 ng/ml TNFα is added or is not added into the T75 flasks. 6 h after, cell media are collected and centrifuged at 500 g for 5 min to pellet and pool floating cells with adherent cells. Adherent cells are washed twice with cold PBS and are collected in 1.5 ml of PBS. Harvested cells are then centrifuged at 500 g for 5 min at 4° C. […] Protein concentration is measured using Pierce method (Pierce 660 nm protein assay, Thermoscientific, USA) with the Ionic Detergent Compatibility Reagent (Thermoscientific, USA). […] Antibody binding was analysed with the scanner Odyssey Image System (Li-COR, Biosciences, USA) and Odyssey V3.0 software. Optical density of each band is also determined by using the software.
On the technique in general: Immunoblotting shows a protein as a band on a membrane.

In test [3] the target is T1, TP receptor (Homo sapiens, UniProt P21731).
T1 sequence (P21731 1-343): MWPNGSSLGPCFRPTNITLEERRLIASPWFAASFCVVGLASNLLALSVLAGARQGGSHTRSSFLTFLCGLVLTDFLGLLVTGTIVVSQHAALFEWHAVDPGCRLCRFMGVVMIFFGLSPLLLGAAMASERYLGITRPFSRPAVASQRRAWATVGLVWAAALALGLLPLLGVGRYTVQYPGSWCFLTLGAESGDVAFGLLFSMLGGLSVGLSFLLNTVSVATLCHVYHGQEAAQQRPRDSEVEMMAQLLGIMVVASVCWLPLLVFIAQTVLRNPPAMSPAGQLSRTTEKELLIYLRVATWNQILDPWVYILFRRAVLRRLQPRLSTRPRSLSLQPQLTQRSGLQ
The following applies: 0.125 to 2.5 mg/kg; cited from earlier work.

Setting [4] is: from 100 nM, not increased at 300 nM and 600 nM.

SMILES strings stand for the structures.

For the molecule `CC(C)(C)N.O=C(O)CC/C=C\C[C@@H]1CO[C@H](c2ccccc2Cl)O[C@@H]1c1ccccc1O` [Compound 3, tert-butylammonium (Z)-6-((2S,4S,5R)-2-(2-chlorophenyl)-4-(2-hydroxyphenyl)-1,3-dioxan-5-yl)hex-4-enoate], in test [1] (10 nM), the “ICAM-1 mRNA expression induced by TNFα” value was “no effect” and the “PTX3 mRNA expression induced by TNFα” value is recorded as “no effect”. Further, in test [1] (setting [4]), the “ICAM-1 mRNA expression induced by TNFα” value is “significant decrease” and the “PTX3 mRNA expression induced by TNFα” value was “significant decrease”. Also, the “mRNA expression of all genes of interest (COX-2, IL-6, IL-8, ICAM-1, VCAM-1, PTX3, MCP-1)” value in test [1] (Compound 3 at the highest concentration, without TNFα) was “no effect”. Further, in test [2], the “ICAM-1 protein expression induced by TNFα” value is given as “no effect” and the “VCAM-1 protein expression induced by TNFα” value is listed as “no effect”. In test [3], the “TP receptor activation in vivo” value is recorded as “antagonize TP receptor activation in vivo”.

These data come from patent US20160193179A1, “Treatment of Cardiovascular Risk in Diabetic Patients” (EVOLVA SA, priority 2012, published 2016).
